IC50 data for three compounds are collected here from patent US20250129051A1, “PARP1 INHIBITORS AND USES THEREOF” (Gilead Sciences, Inc., priority 2023, published 2025).

Common to all, as to assay type: cell-based
The subject of one assay is DLD-1 BRCA2 (−/−) cells. Kind of assay: Cell growth inhibition assay (CellTiter-Glo), DLD-1 BRCA2 (−/−). The following applies: Homo sapiens, 168 h, 7 days, CellTiter Glo 2.0. The source says: (§1) The objective of this study was to evaluate the effect of a compound disclosed herein on cell proliferation through the cell viability assay in DLD-1 BRCA2 (−/−) and parental isogenic pair and MDA-MB-436 (mutated BRCA1) cell lines. The CellTiter-Glo (CTG) based cell viability assay was designed to determine the number of viable cells in the culture because of compound effect, by quantifying adenosine triphosphate (ATP), which indicates the presence of metabolically active cells.
(§2) DLD-1 BRCA2 (−/−) and parental isogenic pair were cultured in RPMI 1640 supplemented with 10% fetal bovine serum (FBS), and MDA-MB-436 cells were cultured in Dulbecco's Modified Eagle Medium (DMEM) supplemented with 10% FBS. Both were cultured at 37° C. with 5% CO2. Compounds were distributed to the 384 well plate (Corning, 3764) using Echo acoustic liquid handler to form a 1:3 serially diluted final concentration with top dose of 10 or 30 μM. The cells were seeded into the plate in the density of 50 cells/well (DLD-1 parental), 200 cells/well (DLD-1 BRCA2−/−), or 500 cells/well (MDA-MB-436). After a short spin, the cells were cultured in a well moisturized incubator at 37° C. with 5% CO2 for 7 days without disturbance. The cell viability was measured by CellTiter Glo 2.0 assay kit (Promega, G9243), and growth inhibition rate was calculated and plotted against final compound concentration, and the data were fitted in Xfit to generate IC50.

Assay [1] has as its system MDA-MB-436 (mutated BRCA1) cells. The assay can be described thus: Cell growth inhibition assay (CellTiter-Glo), MDA-MB-436. The following applies: Homo sapiens, 168 h; MDA-MB-436 cells, 7 days, CellTiter Glo 2.0.
Excerpt: as §1, §2
Background: Cellular ATP, detected with luciferase, serves as a proxy for viable cell number.

Another assay has as its system DLD-1 parental cells. The assay can be described thus: Cell growth inhibition assay (CellTiter-Glo), DLD-1 parental. The note with it: Homo sapiens, 168 h, 7 days, CellTiter Glo 2.0.
Excerpt: as §1, §2

The IC50 is the midpoint of a concentration-inhibition curve. Take `Cc1nc2ccc(CN3C[C@H](Oc4ccc(C(=O)NC5CC5)nc4F)[C@H]3C)c(F)c2[nH]c1=O` [Compound 6, N-cyclopropyl-6-fluoro-5-(((2R,3S)-1-((5-fluoro-2-methyl-3-oxo-3,4-dihydroquinoxalin-6-yl)methyl)-2-methylazetidin-3-yl)oxy) picolinamide]: the values for the IC50 (in the assay with DLD-1 BRCA2 (−/−) cells; in assay [1]; in the assay on DLD-1 parental cells) were 28 nM, 8.9 nM and above 10000 nM, respectively.

In the case of `CNC(=O)c1ccc(O[C@H]2CN(Cc3ccc4nc(C)c(=O)[nH]c4c3F)[C@@H]2C)c(F)n1` [Compound 5, 6-fluoro-5-(((2R,3S)-1-((5-fluoro-2-methyl-3-oxo-3,4-dihydroquinoxalin-6-yl)methyl)-2-methylazetidin-3-yl)oxy)-N-methylpicolinamide], the IC50 in the assay with DLD-1 BRCA2 (−/−) cells was 67 nM; in assay [1] it was 23 nM; with DLD-1 parental cells, above 10000 nM.

`Cc1nc2ccc(CN3C[C@H](Oc4ccc(C#N)nc4F)[C@H]3C)c(F)c2[nH]c1=O` [Compound 7, 6-fluoro-5-(((2R,3S)-1-((5-fluoro-2-methyl-3-oxo-3,4-dihydroquinoxalin-6-yl)methyl)-2-methylazetidin-3-yl)oxy) picolinonitrile]: the half-inhibitory concentration (IC50) in the assay with DLD-1 BRCA2 (−/−) cells was above 1000 nM; in assay [1], above 1000 nM; in the assay with DLD-1 parental cells, above 10000 nM.
